In patent US20260116920A1, “HUMAN TRANSFERRIN RECEPTOR BINDING PEPTIDE” (PEPTIDREAM INC., priority 2021, published 2026) one finds Kd data, which are given here for 13 compounds.

Structures are written as SMILES. Starred links: 1 amine or outer side, 2 acyl side, 3 side chain; linkers in the order of their positions; H or OH if unused. Positions of bridges follow the written chain, without caps; N, C: chain ends. Non-standard residues stand in square brackets, D forms with d. Residues, ends and D or L forms follow the SMILES beside them. *: point of attachment. Trp(1-CH2COOH) = N[C@@H](Cc1cn(CC(=O)O)c2ccccc12)C(=O)O; X1 = O=C([C@H](Cc1cccc(C(=O)[*:3])c1)N[*:1])[*:2]; Nle(6-morpholino) = N[C@@H](CCCCN1CCOCC1)C(=O)O; Phe(3-COOH) = N[C@@H](Cc1cccc(C(=O)O)c1)C(=O)O; Trp(7-aza) = N[C@@H](Cc1c[nH]c2ncccc12)C(=O)O; NH(CH2CH2O)8Me = COCCOCCOCCOCCOCCOCCOCCOCCN*; NMePhe(3-Cl) = CN[C@@H](Cc1cccc(Cl)c1)C(=O)O; X2 = COCCOCCOCCOCCOCCOCCOCCOCCNC(=O)C*; NMeY = CN[C@@H](Cc1ccc(O)cc1)C(=O)O; 3Pal = N[C@@H](Cc1cccnc1)C(=O)O; 4Pal = N[C@@H](Cc1ccncc1)C(=O)O; PEG4 = NCCOCCOCCOCCOCCC(=O)O; Carboxymethyl = O=C(O)C*; NHCH2CH2OMe = COCCN*; X4 = COCC(COC)N*

T1 sequence (P02786 89-760 limits assumed): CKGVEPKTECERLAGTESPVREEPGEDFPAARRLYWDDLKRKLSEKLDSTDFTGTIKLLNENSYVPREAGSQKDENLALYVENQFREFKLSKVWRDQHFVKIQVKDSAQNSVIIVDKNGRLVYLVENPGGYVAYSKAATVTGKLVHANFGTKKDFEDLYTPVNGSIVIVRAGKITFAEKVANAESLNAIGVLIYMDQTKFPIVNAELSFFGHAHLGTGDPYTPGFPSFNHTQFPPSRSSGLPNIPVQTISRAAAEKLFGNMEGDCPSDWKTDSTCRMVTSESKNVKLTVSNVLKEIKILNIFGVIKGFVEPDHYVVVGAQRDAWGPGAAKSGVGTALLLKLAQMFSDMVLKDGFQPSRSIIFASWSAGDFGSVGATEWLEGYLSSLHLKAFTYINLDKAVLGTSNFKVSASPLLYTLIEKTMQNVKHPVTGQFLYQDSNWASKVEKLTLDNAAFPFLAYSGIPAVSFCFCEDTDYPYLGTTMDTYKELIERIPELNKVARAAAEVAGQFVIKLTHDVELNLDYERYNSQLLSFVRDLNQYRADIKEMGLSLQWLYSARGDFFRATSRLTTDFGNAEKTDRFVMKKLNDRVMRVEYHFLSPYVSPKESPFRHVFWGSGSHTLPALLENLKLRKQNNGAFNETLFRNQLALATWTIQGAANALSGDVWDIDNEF

The first assay addresses T1, human transferrin receptor (hTfR) (Homo sapiens, UniProt P02786).
T1 construct: made in house
As to the kind of experiment: Evaluation of molecular interaction between transferrin receptor (hTfR) and peptide using surface plasmon resonance (SPR). Type of assay: binding. Particulars: KD class for binding to hTfR by SPR; peptide with the linker shown in the same line; 'low signal indicates no activity'; read-out: SPR. Summed up: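 Recombinant human TfR dimer (0.5 μM) was captured on a Ni-charged NTA chip and amine-coupled with EDC/NHS, then ethanolamine-capped. Peptides at 5–100 nM in HEPES pH 8.0 buffer with 150 mM NaCl, 0.05% Tween 20, 0.1% BSA and 1.0% DMSO were run by single-cycle kinetics; KD came from least-squares curve fitting.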
On the technique in general: SPR reads the build-up and loss of mass on a sensor chip optically.
`CC[C@H](C)[C@@H]1NC(=O)[C@H](Cc2cccnc2)NC(=O)[C@H](Cc2ccc(O)cc2)NC(=O)[C@H](CC(N)=O)NC(=O)[C@H](Cc2c[nH]c3ccccc23)NC(=O)[C@H](C(C)C)NC(=O)[C@H](Cc2cccc(Cl)c2)N(C)C(=O)[C@H](C(C)C)NC(=O)[C@H](C)NC(=O)CSC[C@@H](C(=O)NCCOCCOCCOCCOCCC(N)=O)NC(=O)[C@H](Cc2ccc(O)cc2)N(C)C(=O)[C@H](Cc2cccc(C(=O)O)c2)NC(=O)[C@H](CCCNC(=N)N)NC(=O)[C@H](CCCNC(=N)N)NC(=O)[C@H]([C@@H](C)CC)NC1=O` [894_0361] ({CH2CO}-AV[NMePhe(3-Cl)]VWNY[3Pal]IIRR[Phe(3-COOH)][NMeY]C[PEG4]-NH2; thioether N-15): the Kd is 1 to 100 nM.

Consider `CC[C@H](C)[C@@H]1NC(=O)[C@H](Cc2ccc(OC)cc2)NC(=O)[C@H](Cc2ccc(O)cc2)NC(=O)[C@H](CC(N)=O)NC(=O)[C@H](Cc2c[nH]c3ccc(Cl)cc23)NC(=O)[C@H](C(C)C)NC(=O)[C@H](Cc2ccccc2)N(C)C(=O)[C@H](C(C)C)NC(=O)[C@H](C)NC(=O)CSC[C@@H](C(=O)NCC(=O)N[C@@H](CCCCN=[N+]=[N-])C(N)=O)NC(=O)[C@H](Cc2ccc(O)cc2)N(C)C(=O)[C@H](Cc2ccccc2)NC(=O)[C@@H](CCCNC(=N)N)NC(=O)[C@H](CCCNC(=N)N)NC(=O)[C@H]([C@@H](C)CC)NC1=O` [894_3155], for which the Kd was in the range of 1 to 100 nM.

Regarding `CC[C@H](C)[C@@H]1NC(=O)[C@H](Cc2ccc(OC)cc2)NC(=O)[C@H](Cc2ccc(O)cc2)NC(=O)[C@H](CC(N)=O)NC(=O)[C@H](Cc2c[nH]c3ccccc23)NC(=O)[C@H](C(C)C)NC(=O)[C@H](Cc2cccc(Cl)c2)N(C)C(=O)[C@H](C(C)C)NC(=O)[C@H](C)NC(=O)CSC[C@@H](C(=O)NCCOCCOCCOCCOCCC(N)=O)NC(=O)[C@H](Cc2ccc(O)cc2)N(C)C(=O)[C@H](Cc2ccccc2)NC(=O)[C@H](CCC(=O)NCCOC)NC(=O)[C@H](CCC(=O)NCCOC)NC(=O)[C@H]([C@@H](C)CC)NC1=O` [894_0330] ({CH2CO}-AV[NMePhe(3-Cl)]VWNYY(Me)IIE(NHCH2CH2OMe)E(NHCH2CH2OMe)F[NMeY]C[PEG4]-NH2; thioether N-15), the Kd lay within 1 to 100 nM.

Consider `CC[C@H](C)[C@@H]1NC(=O)[C@H](Cc2ccc(OCC(=O)O)cc2)NC(=O)[C@H](Cc2ccc(O)cc2)NC(=O)[C@H](CC(N)=O)NC(=O)[C@H](Cc2cn(CC(=O)O)c3ccccc23)NC(=O)[C@H](C(C)C)NC(=O)[C@H](Cc2cccc(Cl)c2)N(C)C(=O)[C@H](C(C)C)NC(=O)[C@H](C)NC(=O)CSC[C@@H](C(=O)NCC(=O)N[C@H](CCC(=O)O)C(=O)N[C@H](CCC(=O)O)C(=O)N[C@H](CCC(=O)O)C(=O)N[C@H](CO)C(=O)N[C@H](CO)C(=O)N[C@@H](CCCCNC(=O)OC[C@@H]2[C@@H]3CCC#CCC[C@@H]32)C(N)=O)NC(=O)[C@H](Cc2ccc(O)cc2)N(C)C(=O)[C@H](Cc2ccccc2)NC(=O)[C@H](CCCNC(=N)N)NC(=O)[C@H](CCCNC(=N)N)NC(=O)[C@H]([C@@H](C)CC)NC1=O` [894_3197], for which the Kd is less than 1 nM.

Still in this assay, the particulars now being: peptide with linker, surface plasmon resonance; read-out: SPR (KD class for binding to hTfR).
On to `CC[C@H](C)[C@@H]1NC(=O)[C@H](Cc2ccc(OCC(=O)NCCOCCOCCOCCOCCOCCOCCOCCOC)cc2)NC(=O)[C@H](Cc2ccc(O)cc2)NC(=O)[C@H](CC(N)=O)NC(=O)[C@H](Cc2c[nH]c3ncccc23)NC(=O)[C@H](C(C)C)NC(=O)[C@H](Cc2cccc(Cl)c2)N(C)C(=O)[C@H](C(C)C)NC(=O)[C@H](C)NC(=O)CSC[C@@H](C(=O)NCCOCCOCCOCCOCCC(N)=O)NC(=O)[C@H](Cc2ccc(O)cc2)N(C)C(=O)[C@H](Cc2cccc(C(=O)NCCOCCOCCOCCOCCOCCOCCOCCOC)c2)NC(=O)[C@H](CCC(N)=O)NC(=O)[C@H](CCC(N)=O)NC(=O)[C@H]([C@@H](C)CC)NC1=O` [compound 229] ({CH2CO}-AV[NMePhe(3-Cl)]V[Trp(7-aza)]NYY(X2)IIQQ[X1](NH(CH2CH2O)8Me)[NMeY]C[PEG4]-NH2; thioether N-15), for which the Kd is 1 to 100 nM.

For the compound `CC[C@H](C)[C@@H]1NC(=O)[C@H](Cc2ccc(OCC(=O)O)cc2)NC(=O)[C@H](Cc2ccc(O)cc2)NC(=O)[C@H](CC(N)=O)NC(=O)[C@H](Cc2cn(CC(=O)O)c3ccccc23)NC(=O)[C@H](C(C)C)NC(=O)[C@H](Cc2cccc(Cl)c2)N(C)C(=O)[C@H](C(C)C)NC(=O)[C@H](C)NC(=O)CSC[C@@H](C(=O)NCCOCCOCCOCCOCCC(N)=O)NC(=O)[C@H](Cc2ccc(O)cc2)N(C)C(=O)[C@H](Cc2cccc(C(=O)O)c2)NC(=O)[C@H](CCCCN2CCOCC2)NC(=O)[C@H](CCCCN2CCOCC2)NC(=O)[C@H]([C@@H](C)CC)NC1=O` [compound 240] ({CH2CO}-AV[NMePhe(3-Cl)]V[Trp(1-CH2COOH)]NYY(Carboxymethyl)II[Nle(6-morpholino)][Nle(6-morpholino)][Phe(3-COOH)][NMeY]C[PEG4]-NH2; thioether N-15), the Kd was 1 to 100 nM.

With `CC[C@H](C)[C@@H]1NC(=O)[C@H](Cc2ccc(OCC(=O)O)cc2)NC(=O)[C@H](Cc2ccc(O)cc2)NC(=O)[C@H](CC(N)=O)NC(=O)[C@H](Cc2c[nH]c3ncccc23)NC(=O)[C@H](C(C)C)NC(=O)[C@H](Cc2cccc(Cl)c2)N(C)C(=O)[C@H](C(C)C)NC(=O)[C@H](C)NC(=O)CSC[C@@H](C(=O)NCCOCCOCCOCCOCCC(N)=O)NC(=O)[C@H](Cc2ccc(O)cc2)N(C)C(=O)[C@H](Cc2cccc(C(=O)O)c2)NC(=O)[C@H](CCCNC(=N)N)NC(=O)[C@H](CCC(N)=O)NC(=O)[C@H]([C@@H](C)CC)NC1=O` [compound 225], the Kd was less than 1 nM.

Still in this assay, the particulars now being: surface plasmon resonance, binding to hTfR; KD class symbol; read-out: SPR (KD value).
Turning to `CC[C@H](C)[C@@H]1NC(=O)[C@H](Cc2ccc(OC)cc2)NC(=O)[C@H](Cc2ccc(O)cc2)NC(=O)[C@H](CC(N)=O)NC(=O)[C@H](Cc2c[nH]c3ccccc23)NC(=O)[C@H](C(C)C)NC(=O)[C@H](Cc2ccccc2)N(C)C(=O)[C@H](C(C)C)NC(=O)[C@H](C)NC(=O)CSC[C@@H](C(=O)NCCOCCOCCOCCOCCC(N)=O)NC(=O)[C@H](Cc2ccc(O)cc2)N(C)C(=O)[C@H](Cc2ccccc2)NC(=O)[C@H](CCCNC(=N)N)NC(=O)[C@H](CCCNC(=N)N)N(C)C(=O)[C@H]([C@@H](C)CC)NC1=O` [compound 17], the Kd is 1 to 100 nM.

As for `CC[C@H](C)[C@@H]1NC(=O)[C@H](Cc2ccc(OC)cc2)NC(=O)[C@H](Cc2ccc(O)cc2)NC(=O)[C@H](CC(N)=O)NC(=O)[C@H](Cc2c[nH]c3ccccc23)NC(=O)[C@H](C(C)C)NC(=O)[C@H](Cc2ccccc2)N(C)C(=O)[C@H](C(C)C)NC(=O)[C@H](C)NC(=O)CSC[C@@H](C(=O)NCCOCCOCCOCCOCCC(N)=O)NC(=O)[C@H](Cc2ccc(O)cc2)N(C)C(=O)[C@H](Cc2ccccc2)NC(=O)[C@@H](CCCNC(=N)N)NC(=O)[C@H](CCCNC(=N)N)NC(=O)[C@H]([C@@H](C)CC)NC1=O` [compound 15], the Kd was 1 to 100 nM.

Turning to `CC[C@H](C)[C@@H]1NC(=O)[C@H](Cc2cccnc2)NC(=O)[C@H](Cc2ccc(O)cc2)NC(=O)[C@H](CC(N)=O)NC(=O)[C@H](Cc2cn(CC(=O)O)c3ccccc23)NC(=O)[C@H](C(C)C)NC(=O)[C@H](Cc2cccc(Cl)c2)N(C)C(=O)[C@H](C(C)C)NC(=O)[C@H](C)NC(=O)CSC[C@@H](C(=O)NCCOCCOCCOCCOCCC(N)=O)NC(=O)[C@H](Cc2ccc(O)cc2)N(C)C(=O)[C@H](Cc2ccncc2)NC(=O)[C@H](CCCNC(=N)N)NC(=O)[C@H](CCCNC(=N)N)NC(=O)[C@H]([C@@H](C)CC)NC1=O` [compound 48] ({CH2CO}-AV[NMePhe(3-Cl)]V[Trp(1-CH2COOH)]NY[3Pal]IIRR[4Pal][NMeY]C[PEG4]-NH2; thioether N-15), the Kd was 1 to 100 nM.

Take `CC[C@H](C)[C@@H]1NC(=O)[C@H](Cc2ccc(OCC(=O)O)cc2)NC(=O)[C@H](Cc2ccc(O)cc2)NC(=O)[C@H](CC(N)=O)NC(=O)[C@H](Cc2cn(CC(=O)O)c3ccccc23)NC(=O)[C@H](C(C)C)NC(=O)[C@H](Cc2cccc(Cl)c2)N(C)C(=O)[C@H](C(C)C)NC(=O)[C@H](C)NC(=O)CSC[C@@H](C(=O)NCCOCCOCCOCCOCCC(N)=O)NC(=O)[C@H](Cc2ccc(O)cc2)N(C)C(=O)[C@H](Cc2ccncc2)NC(=O)[C@H](CCCNC(=N)N)NC(=O)[C@H](CCC(N)=O)NC(=O)[C@H]([C@@H](C)CC)NC1=O` [compound 134]: the Kd was 1 to 100 nM.

Take `CC[C@H](C)[C@@H]1NC(=O)[C@H](Cc2ccc(OCC(=O)O)cc2)NC(=O)[C@H](Cc2ccc(O)cc2)NC(=O)[C@H](CC(N)=O)NC(=O)[C@H](Cc2cn(CC(=O)O)c3ccccc23)NC(=O)[C@H](C(C)C)NC(=O)[C@H](Cc2cccc(Cl)c2)N(C)C(=O)[C@H](C(C)C)NC(=O)[C@H](C)NC(=O)CSC[C@@H](C(=O)NCCOCCOCCOCCOCCC(N)=O)NC(=O)[C@H](Cc2ccc(O)cc2)N(C)C(=O)[C@H](Cc2ccccc2)NC(=O)[C@H](CCCNC(=N)N)NC(=O)[C@H](CCCNC(=N)N)NC(=O)[C@H]([C@@H](C)CC)NC1=O` [compound 44]: the Kd was in the range of 1 to 100 nM.

Regarding `CC[C@H](C)[C@@H]1NC(=O)[C@H](Cc2ccc(OCC(=O)O)cc2)NC(=O)[C@H](Cc2ccc(O)cc2)NC(=O)[C@H](CC(N)=O)NC(=O)[C@H](Cc2c[nH]c3ccccc23)NC(=O)[C@H](C(C)C)NC(=O)[C@H](Cc2cccc(Cl)c2)N(C)C(=O)[C@H](C(C)C)NC(=O)[C@H](C)NC(=O)CSC[C@@H](C(=O)NCCOCCOCCOCCOCCC(N)=O)NC(=O)[C@H](Cc2ccc(O)cc2)N(C)C(=O)[C@H](Cc2cccc(C(=O)O)c2)NC(=O)[C@H](CCCNC(=N)N)NC(=O)[C@H](CCC(=O)NC(COC)COC)NC(=O)[C@H]([C@@H](C)CC)NC1=O` [compound 114] ({CH2CO}-AV[NMePhe(3-Cl)]VWNYY(Carboxymethyl)IIE(X4)R[Phe(3-COOH)][NMeY]C[PEG4]-NH2; thioether N-15), the Kd is less than 1 nM.
